Assay results taken from patent US11026991B2, “Compositions and methods of use thereof to promote muscle growth and function” (Worlds Greatest Ingredients, LP, priority 2018, dated 2021).

Columns and labels:
[1] = set-up: species or system human; conditions: in vivo
Experimental: Another exemplary study was done on a subject. The subject reported to the laboratory after an eight hour fast. Following and eight hour fast, the subject was given a standardized meal plan for two days prior to testing. The subject had their resting heart rate, blood pressure, body mass, height, and body measured using DEXA. Additionally, a urine sample was taken for baseline assessment of clinical safety, amino acid retention, and hydration status. A venous blood sample (10 mL) was be collected from a forearm vein prior to the subject being administrated, in a double-blind fashion a single dose of either leucine (2-gram dose), dileucine (2-gram dose) or leucine (1 grams)+dileucine (1 grams). Subsequent venous blood samples were to be collected 30, 60, 90, 120 and 240 minutes after ingestion of their assigned composition. After blood samples were taken the subject was given 250 mL of cold water to ingest. A second urine sample was taken at 240 minutes after ingestion of the composition. The methodology is shown schematically in FIG. 12.
All blood samples were processed to allow for determination of amino acid concentrations. […]
Plasma essential amino acids (threonine, methionine, lysine, histidine, valine, tryptophan, leucine, phenylalanine, isoleucine) were analyzed by LC/MS/MS and plasma dileucine was analyzed by GC/MS.

muscle protein synthesis = test: Muscle protein synthesis from vastus lateralis biopsies (L-[ring-13C6]-phenylalanine incorporation); type: in vivo, human; conditions: 180 minutes post challenge, 2 g, versus subjects receiving leucine
Experimental: Another exemplary study was done to measure muscle protein synthesis. Two subjects came to the laboratory after a seven hour, overnight fast. A baseline blood sample was taken. Then a primed (2.0 μmol·kg−1), continuous infusion (0.05 μmol·kg−1·min−1) of L-[ring-13C6]-phenylalanine and L-[15N]-phenylalanine was started in one catheter.
Isotopes (from Cambridge Isotopes Inc., Andover, Mass.) were dissolved in 0.9% saline, filtered through a 0.2-μm filter, and infused using a calibrated syringe pump (from Harvard Apparatus, Holliston, Mass.). After obtaining steady-state enrichment, the L-[15N]-phenylalanine tracer infusion was stopped at t=0.
Repeated muscle biopsy sampling was done throughout the infusion trial for the determination of muscle protein synthesis (based on L-[ring-13C6]-phenylalanine incorporation) before and after the ingestion of 2 g leucine or 2 g dileucine. Biopsies (˜100 mg wet weight) were obtained from the middle region of the vastus lateralis under anesthetic (Lidocaine HCl 1%) with a 5 mm Bergstrom needle custom-modified for manual suction. A schematic representation of the experimental protocol can be found in FIG. 15.

[2] = Case study: plasma amino acids after ingestion of 2 g di-leucine (Ce) or 2 g leucine (C4); conditions: for increase in plasma lysine, times greater than the other condition: Ce over C4
Experimental: The subject came into the laboratory fasted prior to the testing days. […] On Day 1, they were randomized to consume 1 of the 2 conditions. Following, consumption of the fluid mixture (8 oz. water), plasma amino acids were measured at 30, 60, 90, and 120 minutes. A 72-hour washout took place followed by the 2nd condition following the same procedures.
The dosage used in this study was either 2 grams of di-leucine (condition Ce) or 2 grams of leucine (condition C4).

- plasma dileucine levels [1]: measurable increases
- increases in total EAA concentration relative to baseline (range) ([2]; 30 and 60 mPost): 7.2% to 26.9%
- increase in total EAA concentration, times greater than Condition C4 ([2]; 30 mPost): 4 ×
- increase in total plasma BCAAs, times greater than Condition C4 ([2]; 30 mPost): 2.9 ×
- Plasma Isoleucine Delta Change Relative to Baseline Values ([2]; 30 mPost ingestion of 2 g): -11.31 nmol/L
- Plasma Isoleucine Percent Change Relative to Baseline Values ([2]; 30 mPost ingestion of 2 g): −16.0%
- Plasma Lysine Delta Change Relative to Baseline Values ([2]; 30 mPost ingestion of 2 g): 39.97 nmol/L
- Plasma Lysine Percent Change Relative to Baseline Values ([2]; 30 mPost ingestion of 2 g): 29.7%
- Plasma Methionine Delta Change Relative to Baseline Values ([2]; 30 mPost ingestion of 2 g): 2.32 µM
- Plasma Methionine Percent Change Relative to Baseline Values ([2]; 30 mPost ingestion of 2 g): 10.1%
- Plasma Phenylalanine Delta Change Relative to Baseline Values ([2]; 30 mPost ingestion of 2 g): 3.55 nmol/L
- Plasma Phenylalanine Percent Change Relative to Baseline Values ([2]; 30 mPost ingestion of 2 g): 6.0%
- Plasma Threonine Delta Change Relative to Baseline Values ([2]; 30 mPost ingestion of 2 g): 7.09 µM
- Plasma Tryptophan Delta Change Relative to Baseline Values ([2]; 30 mPost ingestion of 2 g): -0.83 nmol/L
- Plasma Tryptophan Percent Change Relative to Baseline Values ([2]; 30 mPost ingestion of 2 g): −1.3%
- Plasma Valine Delta Change Relative to Baseline Values ([2]; 30 mPost ingestion of 2 g): -13.31 nmol/L
- Plasma Valine Percent Change Relative to Baseline Values ([2]; 30 mPost ingestion of 2 g): −3.6%
- Total Plasma BCAA Delta Change Relative to Baseline Values ([2]; 30 mPost ingestion of 2 g): 213 µM
- Total Plasma BCAA Percent Change Relative to Baseline Values ([2]; 30 mPost ingestion of 2 g): 35.7%
- Total Plasma EAA Delta Change Relative to Baseline Values ([2]; 30 mPost ingestion of 2 g): 265.57 nmol/L
- Total Plasma EAA Percent Change Relative to Baseline Values ([2]; 30 mPost ingestion of 2 g): 26.9%
- increase in plasma lysine, times greater than the other condition ([2]; 30 mPost): 2.8 ×
- Plasma Isoleucine Delta Change Relative to Baseline Values ([2]; 60 mPost ingestion of 2 g): -14.21 nmol/L
- Plasma Isoleucine Percent Change Relative to Baseline Values ([2]; 60 mPost ingestion of 2 g): −20.1%
- Plasma Lysine Delta Change Relative to Baseline Values ([2]; 60 mPost ingestion of 2 g): 41.31 nmol/L
- Plasma Lysine Percent Change Relative to Baseline Values ([2]; 60 mPost ingestion of 2 g): 30.7%
- Plasma Methionine Delta Change Relative to Baseline Values ([2]; 60 mPost ingestion of 2 g): 1.01 µM
- Plasma Methionine Percent Change Relative to Baseline Values ([2]; 60 mPost ingestion of 2 g): 4.4%
- Plasma Phenylalanine Delta Change Relative to Baseline Values ([2]; 60 mPost ingestion of 2 g): 2.02 nmol/L
- Plasma Phenylalanine Percent Change Relative to Baseline Values ([2]; 60 mPost ingestion of 2 g): 3.4%
- Plasma Threonine Delta Change Relative to Baseline Values ([2]; 60 mPost ingestion of 2 g): 6.11 µM
- Plasma Tryptophan Delta Change Relative to Baseline Values ([2]; 60 mPost ingestion of 2 g): -5.10 nmol/L
- Plasma Tryptophan Percent Change Relative to Baseline Values ([2]; 60 mPost ingestion of 2 g): −7.9%
- Plasma Valine Delta Change Relative to Baseline Values ([2]; 60 mPost ingestion of 2 g): -52.63 nmol/L
- Plasma Valine Percent Change Relative to Baseline Values ([2]; 60 mPost ingestion of 2 g): −14.1%
- Total Plasma BCAA Delta Change Relative to Baseline Values ([2]; 60 mPost ingestion of 2 g): 26 µM
- Total Plasma BCAA Percent Change Relative to Baseline Values ([2]; 60 mPost ingestion of 2 g): 4.3%
- Total Plasma EAA Delta Change Relative to Baseline Values ([2]; 60 mPost ingestion of 2 g): 71.33 nmol/L
- Total Plasma EAA Percent Change Relative to Baseline Values ([2]; 60 mPost ingestion of 2 g): 7.2%
- increase in plasma lysine, times greater than the other condition ([2]; 60 mPost): 5.7 ×
- Plasma Isoleucine Delta Change Relative to Baseline Values ([2]; 90 mPost ingestion of 2 g): -26.67 nmol/L
- Plasma Isoleucine Percent Change Relative to Baseline Values ([2]; 90 mPost ingestion of 2 g): −37.7%
- Plasma Lysine Delta Change Relative to Baseline Values ([2]; 90 mPost ingestion of 2 g): -25.31 nmol/L
- Plasma Lysine Percent Change Relative to Baseline Values ([2]; 90 mPost ingestion of 2 g): −18.8%
- Plasma Methionine Delta Change Relative to Baseline Values ([2]; 90 mPost ingestion of 2 g): -0.00173 µM
- Plasma Methionine Percent Change Relative to Baseline Values ([2]; 90 mPost ingestion of 2 g): −7.5%
- Plasma Phenylalanine Delta Change Relative to Baseline Values ([2]; 90 mPost ingestion of 2 g): -5.98 nmol/L
- Plasma Phenylalanine Percent Change Relative to Baseline Values ([2]; 90 mPost ingestion of 2 g): −10.1%
- Plasma Threonine Delta Change Relative to Baseline Values ([2]; 90 mPost ingestion of 2 g): -0.0034 µM
- Plasma Threonine Percent Change Relative to Baseline Values ([2]; 90 mPost ingestion of 2 g): −3.2%
- Plasma Tryptophan Delta Change Relative to Baseline Values ([2]; 90 mPost ingestion of 2 g): -6.60 nmol/L
- Plasma Tryptophan Percent Change Relative to Baseline Values ([2]; 90 mPost ingestion of 2 g): −10.2%
- Plasma Valine Delta Change Relative to Baseline Values ([2]; 90 mPost ingestion of 2 g): -79.42 nmol/L
- Plasma Valine Percent Change Relative to Baseline Values ([2]; 90 mPost ingestion of 2 g): −21.3%
- Total Plasma BCAA Delta Change Relative to Baseline Values ([2]; 90 mPost ingestion of 2 g): -0.07162 µM
- Total Plasma BCAA Percent Change Relative to Baseline Values ([2]; 90 mPost ingestion of 2 g): −12.0%
- Total Plasma EAA Delta Change Relative to Baseline Values ([2]; 90 mPost ingestion of 2 g): -114.65 nmol/L
- Total Plasma EAA Percent Change Relative to Baseline Values ([2]; 90 mPost ingestion of 2 g): −11.6%
- Plasma Isoleucine Delta Change Relative to Baseline Values ([2]; 120 mPost ingestion of 2 g): -24.37 nmol/L
- Plasma Isoleucine Percent Change Relative to Baseline Values ([2]; 120 mPost ingestion of 2 g): −34.4%
- Plasma Lysine Delta Change Relative to Baseline Values ([2]; 120 mPost ingestion of 2 g): 25.68 nmol/L
- Plasma Lysine Percent Change Relative to Baseline Values ([2]; 120 mPost ingestion of 2 g): 19.1%
- Plasma Methionine Delta Change Relative to Baseline Values ([2]; 120 mPost ingestion of 2 g): -0.00168 µM
- Plasma Methionine Percent Change Relative to Baseline Values ([2]; 120 mPost ingestion of 2 g): −7.3%
- Plasma Phenylalanine Delta Change Relative to Baseline Values ([2]; 120 mPost ingestion of 2 g): -1.89 nmol/L
- Plasma Phenylalanine Percent Change Relative to Baseline Values ([2]; 120 mPost ingestion of 2 g): −3.2%
- Plasma Threonine Delta Change Relative to Baseline Values ([2]; 120 mPost ingestion of 2 g): -0.00207 µM
- Plasma Threonine Percent Change Relative to Baseline Values ([2]; 120 mPost ingestion of 2 g): −1.9%
- Plasma Tryptophan Delta Change Relative to Baseline Values ([2]; 120 mPost ingestion of 2 g): -13.23 nmol/L
- Plasma Tryptophan Percent Change Relative to Baseline Values ([2]; 120 mPost ingestion of 2 g): −20.5%
- Plasma Valine Delta Change Relative to Baseline Values ([2]; 120 mPost ingestion of 2 g): -85.53 nmol/L
- Plasma Valine Percent Change Relative to Baseline Values ([2]; 120 mPost ingestion of 2 g): −22.9%
- Total Plasma BCAA Delta Change Relative to Baseline Values ([2]; 120 mPost ingestion of 2 g): -0.06614 µM
- Total Plasma BCAA Percent Change Relative to Baseline Values ([2]; 120 mPost ingestion of 2 g): −11.1%
- Total Plasma EAA Delta Change Relative to Baseline Values ([2]; 120 mPost ingestion of 2 g): -59.34 nmol/L
- Total Plasma EAA Percent Change Relative to Baseline Values ([2]; 120 mPost ingestion of 2 g): −6.0%
Structure (SMILES): CC(C)C[C@H](NC(=O)[C@@H](N)CC(C)C)C(=O)O [Ce, L-Leucyl-L-leucine]
- myofibrillar FSR (muscle protein synthesis) (muscle protein synthesis): significantly increased
